Data from PubChem BioAssay AID1963964 (Molecular Pharmacology Branch, DTP, NCI, 2024).

Test system: 997726-040-R-J2-PDC tumor spheroids, viability
Assay: Anticancer human tumor 997726-040-R-J2-PDC patient-derived squamous cell lung carcinoma cell line growth inhibition [PI3K]
Conditions: spheroids with HUVEC and MSC; for IC50: curve of first compound; for viability, T/C: stronger effect = lower value
In short: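 Agents were dosed from a top concentration near clinical Cmax (otherwise 10 microM) in half-log decrements, alone or combined with PI3K inhibitors. The spheroids contain tumor cells plus endothelial (HUVEC) and MSC stroma; viability is measured.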
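Further: spheroids exposed to compounds for seven days before readout.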

For `CCN1CCN(Cc2ccc(Nc3ncc(F)c(-c4cc(F)c5nc(C)n(C(C)C)c5c4)n3)nc2)CC1` + Cc1nc(NC(=O)N2CCCC2C(N)=O)sc1-c1ccnc(C(C)(C)C(F)(F)F)c1, the IC50 (second compound 0.0316 µM) was greater than 1000 nM, the IC50 (second compound 0.1 µM) was 466 nM and the IC50 (second compound 0.316 µM) was 7.34 nM. The IC50 (second compound 1 µM) was less than 3.16 nM, the IC50 (second compound 3.16 µM) was less than 3.16 nM and the IC50 (second compound 10 µM) was less than 3.16 nM. For the same compound, the viability, T/C (second compound 0.0316 µM, first compound 0.00316 µM) was 82.8%, the viability, T/C (second compound 0.0316 µM, first compound 0.01 µM) was 79.5% and the viability, T/C (second compound 0.0316 µM, first compound 0.0316 µM) was 61.5%. For the same compound, the viability, T/C (second compound 0.0316 µM, first compound 0.1 µM) was 69.5%, the viability, T/C (second compound 0.0316 µM, first compound 0.316 µM) was 58.3% and the viability, T/C (second compound 0.0316 µM, first compound 1 µM) was 59.8%. The viability, T/C (second compound 0.1 µM, first compound 0.00316 µM) was 76.7%, the viability, T/C (second compound 0.1 µM, first compound 0.01 µM) was 71.1% and the viability, T/C (second compound 0.1 µM, first compound 0.0316 µM) was 67.3%. For the same compound, the viability, T/C (second compound 0.1 µM, first compound 0.1 µM) was 55.2%, the viability, T/C (second compound 0.1 µM, first compound 0.316 µM) was 52.3% and the viability, T/C (second compound 0.1 µM, first compound 1 µM) was 46.3%. It also gave a viability, T/C (second compound 0.316 µM, first compound 0.00316 µM) of 52.5%, a viability, T/C (second compound 0.316 µM, first compound 0.01 µM) of 51.8% and a viability, T/C (second compound 0.316 µM, first compound 0.0316 µM) of 45%. The viability, T/C (second compound 0.316 µM, first compound 0.1 µM) was 39%, the viability, T/C (second compound 0.316 µM, first compound 0.316 µM) was 37.1% and the viability, T/C (second compound 0.316 µM, first compound 1 µM) was 41.1%. The viability, T/C (second compound 1 µM, first compound 0.00316 µM) was 40.8%, the viability, T/C (second compound 1 µM, first compound 0.01 µM) was 39.5% and the viability, T/C (second compound 1 µM, first compound 0.0316 µM) was 37%. The viability, T/C (second compound 1 µM, first compound 0.1 µM) was 30.9%, the viability, T/C (second compound 1 µM, first compound 0.316 µM) was 29% and the viability, T/C (second compound 1 µM, first compound 1 µM) was 33.8%. For the same compound, the viability, T/C (second compound 3.16 µM, first compound 0.00316 µM) was 29.9%, the viability, T/C (second compound 3.16 µM, first compound 0.01 µM) was 27% and the viability, T/C (second compound 3.16 µM, first compound 0.0316 µM) was 26%. The viability, T/C (second compound 3.16 µM, first compound 0.1 µM) was 22.9%, the viability, T/C (second compound 3.16 µM, first compound 0.316 µM) was 23.4% and the viability, T/C (second compound 3.16 µM, first compound 1 µM) was 19.5%. For the same compound, the viability, T/C (second compound 10 µM, first compound 0.00316 µM) was 16.9%, the viability, T/C (second compound 10 µM, first compound 0.01 µM) was 12.3% and the viability, T/C (second compound 10 µM, first compound 0.0316 µM) was 10.3%. The viability, T/C (second compound 10 µM, first compound 0.1 µM) was 10.9%, the viability, T/C (second compound 10 µM, first compound 0.316 µM) was 11.9% and the viability, T/C (second compound 10 µM, first compound 1 µM) was 11.2%.
